Data: EPA's ToxRefDB 2

Columns and labels:
mouse [1] = conditions: Carcinogenicity, b6c3f1, Oral, Feed, dose end: 2 year, group: systemic
rat [2] = conditions: Combined chronic toxicity/carcinogenicity, fischer, Oral, Feed, dose end: 2 year, group: systemic
mouse [3] = conditions: Subchronic oral toxicity in rodents, b6c3f1, Feed, dose end: 13 week, group: systemic, systemic / in life observation / body weight / body weight + systemic / in life observation / food consumption / food consumption
rat [4] = conditions: Subchronic oral toxicity in rodents, fischer, Feed, dose end: 13 week, group: systemic
rat [5] = conditions: Subchronic oral toxicity in rodents, sprague dawley, Feed, dose end: 90 day, group: systemic
rabbit = conditions: Prenatal developmental toxicity study, new zealand white, Oral, Gavage/Intubation, dose end: 19 GD
rat [6] = conditions: Multigenerational reproductive toxicity study, sprague dawley, Oral, Feed, dose end: 2 generation
dog [7] = conditions: Subchronic oral toxicity in dogs, beagle, Capsule, dose end: 90 day, group: systemic, systemic / clinical chemistry / alanine aminotransferase (alt/sgpt) / alanine aminotransferase (alt/sgpt) + systemic / clinical chemistry / …
rat [8] = conditions: Combined chronic toxicity/carcinogenicity, sprague dawley, Oral, Feed, dose end: 24 month, group: systemic
dog [9] = conditions: Chronic toxicity, beagle, Oral, Capsule, dose end: 52 week, group: systemic
rat [10] = conditions: Prenatal developmental toxicity study, wistar, Oral, Gavage/Intubation, dose end: 16 GD
mouse [11] = conditions: Subchronic oral toxicity in rodents, b6c3f1, Feed, dose end: 8 week, group: systemic
mouse [12] = conditions: Carcinogenicity, b6c3f1, Oral, Feed, dose end: 78 week, group: systemic
rat [13] = conditions: Subchronic oral toxicity in rodents, fischer, Feed, dose end: 8 week, group: systemic
rat [14] = conditions: Carcinogenicity, fischer, Oral, Feed, dose end: 78 week, group: systemic
rat [15] = conditions: Other (NonGuideline or Guideline Not Listed), sprague dawley, Oral, Gavage/Intubation, dose end: 7 day, group: cannot be grouped
rat [16] = conditions: Multigenerational reproductive toxicity study, sprague dawley, Inhalation, Whole-Body, dose end: 2 generation
rat [17] = conditions: Prenatal developmental toxicity study, sprague dawley, Inhalation, Whole-Body, dose end: 19 GD, group: maternal
[18] = systemic / in life observation / body weight / body weight + systemic / in life observation / food consumption / food consumption
[19] = systemic / in life observation / food consumption / food consumption
[20] = systemic / in life observation / food consumption / food consumption + systemic / pathology microscopic / lung / adenoma/carcinoma combined…
[21] = systemic / clinical chemistry / aminopyrine-n-demethylase / aminopyrine-n-demethylase
[22] = group: developmental, systemic / in life observation / body weight / fetal weight
[23] = group: developmental, systemic / in life observation / body weight / fetal weight + developmental / developmental malformation / bone / hole(s)
[24] = group: maternal, systemic / in life observation / body weight / body weight gain + systemic / in life observation / food consumption / food consumption
[25] = group: offspring, systemic / in life observation / body weight / offspring (pup) weight gain + systemic / pathology gross / liver / discolored + systemic / …
[26] = group: parental, systemic / organ weight / liver / nos + systemic / pathology gross / liver / accentuated lobular pattern + systemic / pathology gross / …
[27] = group: reproductive, reproductive / offspring survival early / litter size / litter size
[28] = systemic / hematology / platelet / platelet
[29] = systemic / pathology microscopic / adrenal gland / vacuolization + systemic / pathology microscopic / liver / fatty change + systemic / …
[30] = systemic / organ weight / liver / absolute + systemic / clinical chemistry / alanine aminotransferase (alt/sgpt) / alanine aminotransferase…
[31] = group: developmental, developmental / developmental malformation / bone / delayed ossification + developmental / developmental malformation / bone / full …
[32] = group: maternal, reproductive / offspring survival early / offspring survival early other / NOS + systemic / in life observation / body weight / body weight …
[33] = systemic / in life observation / body weight / body weight
[34] = systemic / in life observation / body weight / body weight + systemic / in life observation / mortality / mortality
[35] = systemic / in life observation / body weight / body weight + systemic / pathology microscopic / gallbladder / hyperplasia
[36] = systemic / in life observation / body weight / body weight + systemic / pathology microscopic / gallbladder / hyperplasia + systemic / …
[37] = systemic / in life observation / body weight / body weight + systemic / pathology microscopic / urinary bladder / carcinoma + systemic / …
[38] = systemic / clinical chemistry / alanine aminotransferase (alt/sgpt) / alanine aminotransferase (alt/sgpt) + systemic / clinical chemistry / …
[39] = systemic / in life observation / body weight / body weight gain + systemic / in life observation / clinical signs / defecation + systemic / …
[40] = group: offspring, systemic / organ weight / kidney / nos + systemic / in life observation / body weight / offspring (pup) weight + developmental / …
[41] = group: parental, systemic / pathology gross / lung / discolored
[42] = group: reproductive, reproductive / offspring survival early / birth index / live birth index + reproductive / reproductive performance / estrous cycle / corpora…
[43] = systemic / in life observation / body weight / body weight gain + systemic / in life observation / body weight / body weight + systemic / in…

Oc1cccc2cccnc12 [8-Hydroxyquinoline]
LOAEL (mouse [1]; [18]): > 396 mg/kg/day | NOAEL (mouse [1]; [18]): ≥ 396 mg/kg/day | LEL (mouse [1]; [19]): 217 mg/kg/day | NEL (mouse [1]; [19]): < 217 mg/kg/day | LEL (rat [2]; [19]): 73 mg/kg/day | NEL (rat [2]; [19]): < 73 mg/kg/day | LOAEL (rat [2]; [20]): > 143 mg/kg/day | NOAEL (rat [2]; [20]): ≥ 143 mg/kg/day | LEL (mouse [3]): 900 mg/kg/day | LOAEL (mouse [3]): 900 mg/kg/day | NEL (mouse [3]): 450 mg/kg/day | NOAEL (mouse [3]): 450 mg/kg/day | LOAEL (rat [4]; [18]): 300 mg/kg/day | NEL (rat [4]; [18]): 75 mg/kg/day | NOAEL (rat [4]; [18]): 150 mg/kg/day | LEL (rat [4]; [19]): 150 mg/kg/day

CCCCC(O)(Cn1cncn1)c1ccc(Cl)cc1Cl (stereo unspecified) [Hexaconazole]
LEL (rat [5]; [21]): 2.5 mg/kg/day | NEL (rat [5]; [21]): < 2.5 mg/kg/day | NOAEL (rat [5]; systemic / pathology microscopic / adrenal gland / vacuolization + systemic / clinical chemistry / alanine aminotransferase (alt/sgpt) / …): 2.5 mg/kg/day | LOAEL (rat [5]; systemic / pathology microscopic / adrenal gland / vacuolization + systemic / pathology microscopic / liver / fatty change): 25 mg/kg/day | LEL (rabbit; [22]): 50 mg/kg/day | LOAEL (rabbit; [22]): 50 mg/kg/day | NEL (rabbit; [23]): 25 mg/kg/day | NOAEL (rabbit; [23]): 25 mg/kg/day | LOAEL (rabbit; group: maternal, systemic / in life observation / body weight / body weight gain): 100 mg/kg/day | LEL (rabbit; [24]): 100 mg/kg/day | NEL (rabbit; [24]): 50 mg/kg/day | NOAEL (rabbit; [24]): 50 mg/kg/day | LEL (rat [6]; [25]): 50 mg/kg/day | LOAEL (rat [6]; [25]): 50 mg/kg/day | NEL (rat [6]; [25]): 5 mg/kg/day | NOAEL (rat [6]; [25]): 5 mg/kg/day | LOAEL (rat [6]; [26]): 50 mg/kg/day | NEL (rat [6]; [26]): 1 mg/kg/day | NOAEL (rat [6]; [26]): 5 mg/kg/day | LEL (rat [6]; group: parental, systemic / pathology microscopic / liver / fatty change): 5 mg/kg/day | LEL (rat [6]; [27]): 50 mg/kg/day | LOAEL (rat [6]; [27]): 50 mg/kg/day | NEL (rat [6]; [27]): 5 mg/kg/day | NOAEL (rat [6]; [27]): 5 mg/kg/day | LEL (dog [7]): 25 mg/kg/day | LOAEL (dog [7]): 25 mg/kg/day | NEL (dog [7]): 5 mg/kg/day | NOAEL (dog [7]): 5 mg/kg/day | LEL (rat [8]; [28]): 0.47 mg/kg/day | NEL (rat [8]; [28]): < 0.47 mg/kg/day | LOAEL (rat [8]; [29]): 4.7 mg/kg/day | NOAEL (rat [8]; [29]): 0.47 mg/kg/day | NEL (dog [9]; [30]): 2 mg/kg/day | NOAEL (dog [9]; [30]): 2 mg/kg/day | LOAEL (dog [9]; systemic / organ weight / liver / absolute + systemic / pathology microscopic / liver / lipid deposition): 10 mg/kg/day | LEL (dog [9]; systemic / organ weight / liver / absolute + systemic / pathology microscopic / liver / lipid deposition + systemic / clinical chemistry / …): 10 mg/kg/day | LEL (rat [10]; [31]): 2.5 mg/kg/day | LOAEL (rat [10]; [31]): 2.5 mg/kg/day | NEL (rat [10]; [31]): < 2.5 mg/kg/day | NOAEL (rat [10]; [31]): < 2.5 mg/kg/day | LEL (rat [10]; [32]): 250 mg/kg/day | LOAEL (rat [10]; [32]): 250 mg/kg/day | NEL (rat [10]; [32]): 25 mg/kg/day | NOAEL (rat [10]; [32]): 25 mg/kg/day

Nc1ccc(Cl)cc1N [4-Chloro-1,2-diaminobenzene]
LEL (mouse [11]; [33]): 1500 mg/kg/day | LOAEL (mouse [11]; [33]): 1500 mg/kg/day | NEL (mouse [11]; [34]): 150 mg/kg/day | NOAEL (mouse [11]; [34]): 150 mg/kg/day | LOAEL (mouse [12]; [35]): 1050 mg/kg/day | NOAEL (mouse [12]; [35]): < 1050 mg/kg/day | LEL (mouse [12]; [36]): 1050 mg/kg/day | NEL (mouse [12]; [36]): < 1050 mg/kg/day | LEL (rat [13]; [33]): 500 mg/kg/day | LOAEL (rat [13]; [33]): 500 mg/kg/day | NEL (rat [13]; [34]): 50 mg/kg/day | NOAEL (rat [13]; [34]): 50 mg/kg/day | LOAEL (rat [14]; [33]): 250 mg/kg/day | NOAEL (rat [14]; [33]): < 250 mg/kg/day | LEL (rat [14]; [37]): 250 mg/kg/day | NEL (rat [14]; [37]): < 250 mg/kg/day

CCOc1cccc(-n2cc(C(=O)N3CCN(c4cc(C(=O)[O-])c5ccccc5c4)CC3)nc2-c2ccc(C)cc2)c1.[Na+]
LOAEL (rat [15]; [38]): > 500 mg/kg/day | NOAEL (rat [15]; [38]): ≥ 500 mg/kg/day | LEL (rat [15]; [39]): 10 mg/kg/day | NEL (rat [15]; [39]): < 10 mg/kg/day

CI [Methyl iodide]
LEL (rat [16]; [40]): 5 ppm | LOAEL (rat [16]; [40]): 5 ppm | NEL (rat [16]; [40]): < 5 ppm | NOAEL (rat [16]; [40]): < 5 ppm | LEL (rat [16]; [41]): 5 ppm | LOAEL (rat [16]; [41]): 5 ppm | NEL (rat [16]; [41]): < 5 ppm | NOAEL (rat [16]; [41]): < 5 ppm | LEL (rat [16]; [42]): 50 ppm | LOAEL (rat [16]; [42]): 50 ppm | NEL (rat [16]; [42]): 20 ppm | NOAEL (rat [16]; [42]): 20 ppm | LOAEL (rat [17]; systemic / in life observation / body weight / body weight gain): 60 ppm | LEL (rat [17]; [43]): 60 ppm | NEL (rat [17]; [43]): 20 ppm | NOAEL (rat [17]; [43]): 20 ppm
